ChEMBL document CHEMBL3616435, “Cytotoxic cardenolides from the latex of Calotropis procera” (Bioorg Med Chem Lett, 2015)

Key:
[1] = test system: A549; test: Cytotoxicity against human A549 cells by MTT assay; type: functional, cell-based
[2] = test system: HeLa; test: Cytotoxicity against human HeLa cells by MTT assay; type: functional, cell-based
[3] = test system: Staphylococcus aureus; test: Antimicrobial activity against methicillin-resistant Staphylococcus aureus after 16 hrs by broth microdilution method; type: functional
[4] = test system: Bacillus subtilis; test: Antimicrobial activity against Bacillus subtilis after 16 hrs by broth microdilution method; type: functional
[5] = test system: Escherichia coli; test: Antimicrobial activity against Escherichia coli after 16 hrs by broth microdilution method; type: functional
[6] = test system: Candida albicans; test: Antimicrobial activity against Candida albicans after 16 hrs by broth microdilution method; type: functional

SMILES | IC50 [1] [nM] | IC50 [2] [nM] | MIC [3] [µg/mL] | MIC [4] [µg/mL] | MIC [5] [µg/mL] | MIC [6] [µg/mL]
C[C@@H]1C[C@@H](O)[C@]2(O)O[C@@H]3C[C@@]4(C=O)[C@@H](CC[C@@H]5[C@@H]4CC[C@]4(C)[C@@H](C6=CC(=O)OC6)C[C@@H](O)[C@]54O)C[C@H]3O[C@@H]2C1 | 79 | 128 | > 100 | > 100 | > 100 | > 100
CO[C@@H]1C[C@@H](C)C[C@H]2O[C@@H]3C[C@@H]4CC[C@@H]5[C@H](CC[C@]6(C)[C@@H](C7=CC(=O)OC7)C[C@@H](O)[C@]56O)[C@@]4(C=O)C[C@H]3O[C@@]12O | 65 | 104 | > 100 | > 100 | > 100 | > 100
C[C@@H]1C[C@@H](O)[C@]2(O)O[C@@H]3C[C@@]4(C)[C@@H](CC[C@@H]5[C@@H]4CC[C@]4(C)[C@@H](C6=CC(=O)OC6)C[C@@H](O)[C@]54O)C[C@H]3O[C@@H]2C1 | 347 | 663 | > 100 | > 100 | > 100 | > 100
C[C@H]1C[C@H]2O[C@@H]3C[C@@H]4CC[C@@H]5[C@H](CC[C@]6(C)[C@@H](C7=CC(=O)OC7)CC[C@]56O)[C@@]4(C=O)C[C@H]3O[C@@]2(O)[C@H](O)[C@@H]1O | 58 | 87 | > 100 | > 100 | > 100 | > 100
C[C@H]1C[C@H]2O[C@@H]3C[C@@H]4CC[C@@H]5[C@H](CC[C@]6(C)[C@@H](C7=CC(=O)OC7)C[C@@H](O)[C@]56O)[C@@]4(C=O)C[C@H]3O[C@@]2(O)[C@@]2(C1)N=CCS2 | 157 | 318 | > 100 | > 100 | > 100 | > 100
C[C@]12[C@H](O)C[C@H]3[C@@H](CC[C@H]4C[C@H](O)CC[C@@]43CO)[C@@]1(O)CC[C@@H]2C1=CC(=O)OC1 | 604 | 1150 | > 100 | > 100 | > 100 | > 100
C[C@]12[C@H](O)C[C@H]3[C@@H](CC[C@H]4C[C@H](O)CC[C@@]43C=O)[C@@]1(O)CC[C@@H]2C1=CC(=O)OC1 | 1020 | 1430 | > 100 | > 100 | > 100 | > 100
C[C@]12C[C@@H](O)[C@H](O)C[C@@H]1CC[C@@H]1[C@@H]2CC[C@]2(C)[C@@H](C3=CC(=O)OC3)C[C@@H](O)[C@]12O | 1690 | 2470 | > 100 | > 100 | > 100 | > 100
C[C@]12[C@H](O)C[C@H]3[C@@H](CC[C@H]4C[C@@H](O)CC[C@@]43CO)[C@@]1(O)CC[C@@H]2C1=CC(=O)OC1 | 549 | 863 | > 100 | > 100 | > 100 | > 100
C[C@@H]1C[C@@H](O)[C@]2(O)O[C@@H]3C[C@@]4(C=O)[C@@H](CC[C@@H]5[C@@H]4CC[C@]4(C)[C@@H](C6=CC(=O)OC6)CC[C@]54O)C[C@H]3O[C@@H]2O1 [CALACTIN] | – | – | > 100 | > 100 | > 100 | > 100
C[C@@H]1C[C@@]2(N=CCS2)[C@]2(O)O[C@@H]3C[C@@]4(C=O)[C@@H](CC[C@@H]5[C@@H]4CC[C@]4(C)[C@@H](C6=CC(=O)OC6)CC[C@]54O)C[C@H]3O[C@@H]2O1 [USCHARIN] | 104 | 275 | > 100 | > 100 | > 100 | > 100
